Measured values published in patent US20150141375A1 (priority 2009, published 2015).
Entries after “also recorded” stand apart in the source; their conditions may differ.

Tests used:
Mad-4 JCV = test: JCV (Mad-4) initial infection of SVG cells (in situ DNA hybridization, qPCR)
HSV-2 = test: In vitro efficacy against HSV-2 strains in HFF (CPE, plaque reduction); assay type: cell-based
Excerpt: In vitro screening by CPE assay in human foreskin fibroblast (HFF) cells with confirmation using plaque reduction assays in HFF.

[1] = Vistide 5 mg/kg with probenecid; cited from earlier work
PK comparison, mouse = assay type: in vivo; conditions: 2 mg/kg, calculated from doses of 2 and 10 mg/kg, analyte = label, after CMX001
Excerpt: (§1) Table 4 illustrates the PK comparison of CMX001 with CMX021 and CMX064 for mouse, rabbit and human.

HPV 11 = test: In vitro potency against dsDNA viruses: HPV 11; assay type: cell-based; conditions: A-431; A431
HCMV (AD169) = test: HCMV real time array of viral transcripts; assay type: cell-based; conditions: CDV 50 μM, GCV 15 μM, CMX001 0.5 μM; ANOVA P<0.05
BKV(Dunlop) = conditions: RPTECs, same test system (Bernhoff et al., 2008), cited from earlier work
JC = test: In vitro potency against dsDNA viruses: JC; assay type: cell-based, JC virus; conditions: JC polyomavirus
HSV-1 [2] = test: microbe, parasite or virus in culture; assay type: cell-based
SVG cells = test: SVG cell viability / cell number (MTS, alamar blue, hematoxylin); assay type: cell-based, human
Description: Quantification of cell viability using the MTS [3-(4,5-dimethylthiazol-2-yl)-5-(3-carboxymethoxyphenyl)-2-(4-sulfophenyl)-2H-tetrazolium] assay is based on bioactivity of mitochondrial dehydrogenase in living cells, which converts colorless tetrazolium salt to a colored formazan. MTS assays were performed according to manufacturer's instructions (Promega, Madison Wis.). Briefly, culture medium was removed from cells and 50 μL of PBS was added into each well of a 96 well plate. Ten μL of MTS reagent were added to wells of cells, and to a well without cells to determine background. Mixtures were incubated at 37° C. for 2 hours and the absorbance was measured at 490 nm. Trypan blue staining was performed on identical cultures to correlate MTS values with cell viability. The final values indicated are the result from 3 replicates. The value for the non-treated control was set to 100% and all other values are represented as a percentage of the control. Alamar blue (AB) assay.
Quantification of cell viability using the alamar blue (AB) assay was performed according to the manufacturer's instructions (Invitrogen, Gaithersburg, Md.). Briefly, 10 μL of AB reagent was added to each well of a 96 well dish containing cells or without cells to determine background. Mixtures were incubated at 37° C. for 6 hours and the absorbance measured at 570 nm using 600 nm as a reference wavelength. The value for the non-treated control was set to 100% and all other values are represented as a percentage of the control.
Because cell density in cultures processed for in situ DNA hybridization could not be measured by MTS or AB assays, cell density was approximated in cell cultures processed by quantifying hematoxylin staining intensity. Coverslips containing cells were prepared for in situ DNA hybridization and co-stained with hematoxylin. Subsequently, each coverslip was scanned and the hematoxylin intensities quantified using ImageJ. To determine the total cell number per coverslip, images were acquired at 10 random positions at 100× magnification. Cells were counted throughout each image and the average cell number per slide was generated by averaging counts from the 10 images for each experimental group. Exactly 900 images at 100× magnification cover the surface of an 18 mm×18 mm coverslip.

Vaccinia Virus = test: microbe, parasite or virus in culture; assay type: cell-based; conditions: Orthopoxvirus vaccinia, HFF
PK comparison, rabbit = conditions: in vivo, 2 mg/kg, calculated from doses of 5 and 10 mg/kg, analyte = label, after CMX001
Excerpt: as §1

Variola major = test: organism not typed; assay type: cell-based; conditions: Vero 76
EBV = test: In vitro potency against dsDNA viruses: EBV; assay type: cell-based; conditions: human gammaherpesvirus 4; Dardi
CMV = conditions: person with renal failure, all observed time points after CMX001
HPV 18 = test: In vitro potency against dsDNA viruses: HPV 18; assay type: cell-based; conditions: HeLa
[3] = Safety and pharmacokinetics of CMX001 in healthy volunteers; assay type: in vivo, human; conditions: blood, Human, analyte = label
Description: An initial study was conducted to evaluate the safety and pharmacokinetics of CMX001 in healthy volunteers. The study consisted of a single dose arm (SD) and a multiple dose arm (MD). In the single dose arm 7 cohorts of 6 subjects were treated (4 subjects received active drug and 2 placebo). Enrollment was staggered as 2 subjects (one active, one placebo) followed by 4 subjects (Groups A and B). The estimated single doses for the two highest doses treated for a […] subject were 40 mg (0.6 mg/kg cohort 6) and 70 mg (1 mg/kg cohort 7). In the multiple dose arm, cohort 6MD received 0.1 mg/kg on Day 0, 6 and 12; Cohort 7MD received 0.2 mg/kg on Day 0, 6 and 12. Levels of cidofovir, CMX001 and CMX064 (major metabolite) were measured in blood and urine of subjects during the course of the study. Gastrointestinal (GI) monitoring of the subjects included (a) monitoring for clinical signs of GI adverse events, (b) monitoring for clinical symptoms using a visual Analog Scale, (c) monitoring for appetite loss/anorexia, nausea, vomiting, diarrhea, constipation and intestinal gas/bloating, (d) laboratory tests for fecal occult blood; serum electrolytes, urine specific gravity, BUN/creatinine ratio; serum albumin, and lipids, and (e) diagnostic studies (the Wireless capsule endoscopy (PillCam®, Given Imaging)).

Adenovirus = test: In vitro activity against Adenovirus (HFF; AdV 5); assay type: cell-based; conditions: unidentified adenovirus
BK Virus = test: In vitro potency against BK Virus in WI-38 cells; assay type: cell-based; conditions: Betapolyomavirus hominis, WI-38
HSV-1 [4] = test: In vitro potency against dsDNA viruses: HSV-1; assay type: cell-based; conditions: Human alphaherpesvirus 1, MRC5; MRC-5
HCMV(AD169) = test: In vitro potency against dsDNA viruses: HCMV; assay type: cell-based; conditions: Human betaherpesvirus 5, AD169, MRC5; MRC-5
HHV-6 = test: In vitro potency against dsDNA viruses: HHV-6; assay type: cell-based; conditions: HSB2; HSB-2

In the case of `Nc1ccn(C[C@@H](CO)OCP(=O)(O)O)c(=O)n1` [Cidofovir, cidofovir, reference compound], the “reduction in JCV DNA containing cells” value (Mad-4 JCV; CDV 0.01 to 0.1 μM, listed as CDV) is reported as “did not elicit any significant reduction; also recorded: did not show any effect on JCV replication”, the “copy number of JCV genomes (qPCR)” value (Mad-4 JCV; CDV, any concentration tested) is reported as “had no affect” and the EC50 (HSV-2; Human alphaherpesvirus 2, strain G) is reported as 5.5 ± 2.1 µM. For the same compound, the EC50 (HSV-2; Human alphaherpesvirus 2, strain MS) was 5.1 ± 5.4 µM, the EC50 (HSV-2; Human alphaherpesvirus 2, strain SR) was 5.9 ± 5.9 µM and the “peak plasma concentrations of cidofovir” value [1] was 19,600 ng/mL. The Cmax (PK comparison, mouse) was “BQL-”, the EC50 (HPV 11) was 716 µM and the “levels of viral transcripts” value (HCMV (AD169)) was “Significant reductions in levels of most viral transcripts”. The “IC-90 of CDV, BKV replication” value (BKV(Dunlop)) was 40 µg/mL, the IC90 (BKV(Dunlop); read-out: IC-90 of CDV, BKV replication) was 127 µM and the EC50 (JC) was 0.38 µM. For the same compound, the EC50 (HSV-1 [2]; Human alphaherpesvirus 1, strain E-377) was 5.5 ± 6 µM, the EC50 (HSV-1 [2]; Human alphaherpesvirus 1, strain F) was 1.5 ± 0.4 µM and the EC50 (HSV-1 [2]; Human alphaherpesvirus 1, strain HL-3) was 3.6 ± 3 µM. The “cytotoxicity (total cell number)” value (SVG cells; CDV 0.01 to 0.1 μM) was “did not cause cytotoxicity at any concentration tested”, the “cell density and viability” value (SVG cells; CDV 0.1 to 1 μM, 4 days) was “did not elicit any visible changes” and the EC50 (Vaccinia Virus) was 46 µM. For the same compound, the AUC (PK comparison, rabbit) was 50.1 ng·h/mL, the Cmax (PK comparison, rabbit) was 5.44 ng/mL and the EC50 (Variola major) was 27.3 µM. For the same compound, the EC50 (EBV) was over 170 µM, the “plasma concentrations of cidofovir” value (CMV) was “below 250 ng/mL” and the EC50 (HPV 18) was 516 µM. It also gave an AUC ([3]; 0.05 mg/kg, CMX001 0.050 mg/kg) of 33.3 ng·h/mL, a Cmax ([3]; 0.05 mg/kg, CMX001 0.050 mg/kg) of 1.51 ng/mL and an AUC ([3]; 0.1 mg/kg, CMX001 0.100 mg/kg) of 125 ng·h/mL. It also gave a Cmax ([3]; 0.1 mg/kg, CMX001 0.100 mg/kg) of 3.44 ng/mL, an AUC ([3]; 0.2 mg/kg, CMX001 0.200 mg/kg) of 190 ng·h/mL and a Cmax ([3]; 0.2 mg/kg, CMX001 0.200 mg/kg) of 5.41 ng/mL. The AUC ([3]; 0.4 mg/kg, CMX001 0.400 mg/kg) was 445 ng·h/mL, the Cmax ([3]; 0.4 mg/kg, CMX001 0.400 mg/kg) was 10.4 ng/mL and the AUC ([3]; 0.6 mg/kg, CMX001 0.600 mg/kg) was 519 ng·h/mL. For the same compound, the Cmax ([3]; 0.6 mg/kg, CMX001 0.600 mg/kg) was 12.2 ng/mL, the IC50 (Adenovirus) was 1.3 µM and the EC50 (Adenovirus; HFF) was 1.3 µM. It also gave an EC50 (BK Virus) of 115 µM, an EC50 (HSV-1 [4]) of 15 µM and an EC50 (HCMV(AD169)) of 0.38 µM. It also gave an EC50 (HHV-6) of 0.2 µM.
